# Experimental data: US11091501B2, “Heterocyclic compounds as RSV inhibitors” (Enanta Pharmaceuticals, Inc., priority 2017, dated 2021)
# pEC50: −log10 of the molar value.
# Tested on: Human RSV-A (“Long” strain)
# Experiment: RSV in vitro cytoprotection assay (CPE, ATPlite) in HEp-2 cells
# Type: cell-based
# Conditions: human respiratory syncytial virus, 96 h; HEp-2 cells, 4-day incubation, ATPlite readout; read-out: Human RSV-A (“Long” strain) EC50
# Description: RSV is a single stranded negative sense RNA virus that causes respiratory tract infections which can be dangerous to infants, the elderly, and immunosuppressed individuals. Currently there is no vaccine, and therapeutic options are both costly and of limited effectiveness. These approved treatments are Ribavirin, and Palivizumab/Synagis (a monoclonal antibody). RSV has two genotypes, A and B, which differ primarily in the structure of the virus' surface “G” attachment protein. Our current primary screen focuses on RSV-A and uses an in vitro cytoprotection assay where compounds are added in 2-fold dilutions to cells which are then subjected to fully replicative viral particles. Cell viability is measured several days later along with separate measurements of compound cytotoxicity. This report focuses on the results of our most recent screening of compounds.
# HEp-2 cells, (originally derived from tumors grown in irradiated-cortisonised weanling rats that had been injected with epidermoid carcinoma tissue from a person's larynx, but later found to be indistinguishable from HeLa cells by PCR DNA analysis), were used for the culturing of genotype A, “Long” strain RSV. Flasks were inoculated with RSV and viral stocks were collected once cytopathic effect (CPE) was greater than 90%. Viral stocks in 25% sucrose media were snap frozen using liquid nitrogen to increase viral stability. Viral stock titers were quantified by tissue culture infectious dose 50% (TCID50) using 8,000 cells per well and 3-fold viral dilutions across a 96-well plate, cultured for 4 days.
# Following extensive parameter testing, the final assay is run as follows: HEp-2 cells are seeded into the inner 60 wells of a 96-well plate at 8,000 cells per well in a volume of 50 μL using Growth Media (DMEM without phenol red, 1% L-Glut, 1% Penn/Strep, 1% nonessential amino acids, 10% FBS). 2-Fold serial dilutions of control and test compounds are added to the wells in duplicate in a total volume of 25 μL. Viral stock is then added to the wells in a volume of […] the total volume of each well to 100 μL. Each 96-well plate has a control column of 6 wells with cells and virus but no compound (negative control, max CPE), a column with cells but no compound or virus (positive control, minimum CPE), and a column with no cells or virus or compound (background plate/reagent control). The control wells with cells but no virus are given an additional 25 uL of growth media containing an equal quantity of sucrose as those wells receiving the viral stock in order to keep consistent in media and volume conditions. The outer wells of the plate are filled with 125 μL of growth media to act as a thermal and evaporative moat around the test wells. Following a 4-day incubation period, the plates are read using ATPlite (50 uL added per well), which quantifies the amount of ATP (a measure of cell health) present in each well. Assay plates are read using the Envision luminometer. In parallel, cytotoxicity is examined on an additional 96-well plate treated in an identical manner, but substituting the 25 μL of viral stock for 25 μL of growth media. […] EC50 ranges are as follows: A<0.01 μM; B 0.01-0.05 μM; C>0.05 μM.
row,SMILES,pEC50
1,CC1(C)CCN(c2ncccc2C(=O)Nc2ccc(C(=O)N3CCc4cc(C(=O)Nc5c(F)cccc5F)sc4-c4ccc(F)cc43)cc2)CCS1(=O)=O [Example 49],< 7.30
2,O=C(Nc1c(F)cccc1F)c1cc2c(s1)-c1ccc(F)cc1N(C(=O)c1ccc(NC(=O)c3cccnc3N3CCCOCC3)cc1)CC2 [Example 51],< 7.30
3,O=C(Nc1c(F)cccc1F)c1cc2c(s1)-c1ccc(F)cc1N(C(=O)c1ccc(NC(=O)c3cccnc3N3CCCC(F)(F)CC3)cc1)CC2 [Example 52],< 7.30
4,O=C(Nc1c(F)cccc1F)c1cc2c(s1)-c1ccc(F)cc1N(C(=O)c1ccc(NC(=O)c3cccnc3N3CCOc4ccccc4C3)cc1)CC2 [Example 53],< 7.30
5,CCOCCNc1ncccc1C(=O)Nc1ccc(C(=O)N2CCc3cc(C(=O)Nc4c(F)cccc4F)sc3-c3ccc(F)cc32)cc1 [Example 54],< 7.30
6,CCOCCN(C)c1ncccc1C(=O)Nc1ccc(C(=O)N2CCc3cc(C(=O)Nc4c(F)cccc4F)sc3-c3ccc(F)cc32)cc1 [Example 55],< 7.30
7,Cc1cc(CNc2ncccc2C(=O)Nc2ccc(C(=O)N3CCc4cc(C(=O)Nc5c(F)cccc5F)sc4-c4ccc(F)cc43)cc2)on1 [Example 56],< 7.30
8,CCS(=O)(=O)CCN(C)c1ncccc1C(=O)Nc1ccc(C(=O)N2CCc3cc(C(=O)Nc4c(F)cccc4F)sc3-c3ccc(F)cc32)cc1 [Example 57],< 7.30
9,CC1(CNc2ncccc2C(=O)Nc2ccc(C(=O)N3CCc4cc(C(=O)Nc5c(F)cccc5F)sc4-c4ccc(F)cc43)cc2)CCCO1 (stereo not drawn) [Example 58],< 7.30
10,CCS(=O)(=O)CCNc1ncccc1C(=O)Nc1ccc(C(=O)N2CCc3cc(C(=O)Nc4c(F)cccc4F)sc3-c3ccc(F)cc32)cc1 [Example 59],< 7.30
11,O=C(Nc1c(F)cccc1F)c1cc2c(s1)-c1ccc(F)cc1N(C(=O)c1ccc(NC(=O)c3cccnc3C3=CCOCC3)cc1)CC2 [Example 60],< 7.30
12,O=C(Nc1c(F)cccc1F)c1cc2c(s1)-c1ccc(F)cc1N(C(=O)c1ccc(NC(=O)c3cccnc3-c3ccc(N4CCOCC4)cc3)cc1)CC2 [Example 62],< 7.30
13,O=C(Nc1c(F)cccc1F)c1cc2c(s1)-c1ccc(F)cc1N(C(=O)c1ccc(NC(=O)c3cccnc3-c3ccncc3)cc1)CC2 [Example 63],< 7.30
14,O=C(Nc1c(F)cccc1F)c1cc2c(s1)-c1ccc(F)cc1N(C(=O)c1ccc(NC(=O)c3cccnc3-c3c[nH]c4ccncc34)cc1)CC2 [Example 64],< 7.30
15,O=C(Nc1c(F)cccc1F)c1cc2c(s1)-c1c(ccc(F)c1F)N(C(=O)c1ccc(NC(=O)c3cccnc3N3CC4(CCOCC4)C3)cc1)CC2 [Example 69],7.30 to 8.00
16,O=C(Nc1ccc(C(=O)N2CCc3cc(-c4nc5ccccc5[nH]4)sc3-c3c2ccc(F)c3F)cc1)c1cccnc1N1CC2(CCOCC2)C1 [Example 70],7.30 to 8.00
17,O=C(Nc1c(F)cc(F)cc1F)c1cc2c(s1)-c1cc(F)c(F)cc1N(C(=O)c1ccc(NC(=O)c3cc(F)cnc3N3CC4(CCOCC4)C3)cc1)CC2 [Example 71],7.30 to 8.00
18,Cc1cccc(F)c1NC(=O)c1cc2c(s1)-c1cc(F)c(F)cc1N(C(=O)c1ccc(NC(=O)c3cc(F)cnc3N3CC4(CCOCC4)C3)cc1)CC2 [Example 72],7.30 to 8.00
19,O=C(Nc1c(F)cccc1F)c1cc2c(s1)-c1cc(F)c(F)cc1N(C(=O)c1ccc(NC(=O)c3cc(F)cnc3N3CC4(CCOCC4)C3)cc1)CC2 [Example 73],7.30 to 8.00
20,O=C(Nc1c(F)cccc1Cl)c1cc2c(s1)-c1cc(F)c(F)cc1N(C(=O)c1ccc(NC(=O)c3cc(F)cnc3N3CC4(CCOCC4)C3)cc1)CC2 [Example 74],7.30 to 8.00
21,O=C(Nc1c(F)cccc1C(F)(F)F)c1cc2c(s1)-c1cc(F)c(F)cc1N(C(=O)c1ccc(NC(=O)c3cc(F)cnc3N3CC4(CCOCC4)C3)cc1)CC2 [Example 75],7.30 to 8.00
22,O=C(Nc1c(F)cc(F)cc1F)c1cc2c(s1)-c1c(cc(F)c(F)c1F)N(C(=O)c1ccc(NC(=O)c3cccnc3N3CC4(CCOCC4)C3)cc1)CC2 [Example 79],7.30 to 8.00
23,O=C(Nc1c(F)cccc1Cl)c1cc2c(s1)-c1c(cc(F)c(F)c1F)N(C(=O)c1ccc(NC(=O)c3cccnc3N3CC4(CCOCC4)C3)cc1)CC2 [Example 80],7.30 to 8.00
24,O=C(Nc1c(F)cc(F)cc1Cl)c1cc2c(s1)-c1c(cc(F)c(F)c1F)N(C(=O)c1ccc(NC(=O)c3cccnc3N3CC4(CCOCC4)C3)cc1)CC2 [Example 81],7.30 to 8.00
25,O=C(Nc1ccc(C(=O)N2CCc3cc(-c4nc5ccccc5[nH]4)sc3-c3ccc(Cl)cc32)cc1)c1cccnc1N1CC2(CCOCC2)C1 [Example 82],7.30 to 8.00
26,O=C(Nc1c(F)cc(F)cc1Cl)c1cc2c(s1)-c1ccc(Cl)cc1N(C(=O)c1ccc(NC(=O)c3cccnc3N3CC4(CCOCC4)C3)cc1)CC2 [Example 84],7.30 to 8.00
27,Cc1cccc(F)c1NC(=O)c1cc2c(s1)-c1ccc(C(F)(F)F)cc1N(C(=O)c1ccc(NC(=O)c3cccnc3N3CC4(CCOCC4)C3)cc1)CC2 [Example 85],< 7.30
28,O=C(Nc1ccc(C(=O)N2CCc3cc(-c4nc5ccccc5[nH]4)sc3-c3ccc(C(F)(F)F)cc32)cc1)c1cccnc1N1CC2(CCOCC2)C1 [Example 86],< 7.30
29,O=C(Nc1c(F)cccc1F)c1cc2c(s1)-c1cc(C(F)(F)F)ccc1N(C(=O)c1ccc(NC(=O)c3cccnc3N3CC4(CCOCC4)C3)cc1)CC2 [Example 87],7.30 to 8.00
30,O=C(Nc1ccc(C(=O)N2CCc3c(sc(C(=O)Nc4c(Cl)cccc4Cl)c3F)-c3ccccc32)cc1)c1cccnc1N1CC2(CCOCC2)C1 [Example 90],7.30 to 8.00

# Results, then the compound that gave them:
row,pEC50,SMILES
1,7.30 to 8.00,O=C(Nc1c(F)cccc1F)c1cc2c(s1)-c1ccc(F)cc1N(C(=O)c1ccc(NC(=O)c3cccnc3N3CC4CCC(C3)O4)cc1)CC2 [Example 50]
2,7.30 to 8.00,O=C(Nc1c(F)cccc1F)c1cc2c(s1)-c1ccc(F)cc1N(C(=O)c1ccc(NC(=O)c3cccnc3C3CCOCC3)cc1)CC2 [Example 61]
3,> 8.00,O=C(Nc1c(F)cccc1F)c1cc2c(s1)-c1ccc(F)cc1N(C(=O)c1ccc(NC(=O)c3cc4c(nc3N3CC5(CCOCC5)C3)CCC4)cc1)CC2 [Example 65]
4,> 8.00,O=C(Nc1c(F)cc(F)cc1Cl)c1cc2c(s1)-c1ccc(F)cc1N(C(=O)c1ccc(NC(=O)c3cc4c(nc3N3CC5(CCOCC5)C3)CCC4)cc1)CC2 [Example 66]
5,> 8.00,O=C(Nc1c(F)cc(F)cc1F)c1cc2c(s1)-c1ccc(F)cc1N(C(=O)c1ccc(NC(=O)c3cc4c(nc3N3CC5(CCOCC5)C3)CCC4)cc1)CC2 [Example 67]
6,7.30 to 8.00,O=C(Nc1ccc(C(=O)N2CCc3cc(-c4nc5ccccc5[nH]4)sc3-c3ccc(F)cc32)cc1)c1cc2c(nc1N1CC3(CCOCC3)C1)CCC2 [Example 68]
7,> 8.00,O=C(Nc1c(F)cccc1F)c1cc2c(s1)-c1cc(F)c(F)cc1N(C(=O)c1ccc(NC(=O)c3cccnc3N3CC4(CCOCC4)C3)cc1)CC2 [Example 76]
8,> 8.00,O=C(Nc1c(F)cccc1F)c1cc2c(s1)-c1c(cc(F)c(F)c1F)N(C(=O)c1ccc(NC(=O)c3cccnc3N3CC4(CCOCC4)C3)cc1)CC2 [Example 78]
9,> 8.00,O=C(Nc1c(F)cccc1F)c1cc2c(s1)-c1ccc(Cl)cc1N(C(=O)c1ccc(NC(=O)c3cccnc3N3CC4(CCOCC4)C3)cc1)CC2 [Example 83]
10,> 8.00,O=C(Nc1ccc(C(=O)N2CCc3c(sc(C(=O)Nc4c(F)cccc4F)c3F)-c3ccccc32)cc1)c1cccnc1N1CC2(CCOCC2)C1 [Example 88]
11,> 8.00,O=C(Nc1ccc(C(=O)N2CCc3c(sc(C(=O)Nc4c(F)cc(F)cc4F)c3F)-c3ccccc32)cc1)c1cccnc1N1CC2(CCOCC2)C1 [Example 89]
12,> 8.00,Cc1cccc(F)c1NC(=O)c1sc2c(c1F)CCN(C(=O)c1ccc(NC(=O)c3cccnc3N3CC4(CCOCC4)C3)cc1)c1ccccc1-2 [Example 91]
13,> 8.00,O=C(Nc1ccc(C(=O)N2CCc3c(sc(-c4nc5ccccc5[nH]4)c3F)-c3ccccc32)cc1)c1cccnc1N1CC2(CCOCC2)C1 [Example 92]
14,> 8.00,Cc1cnc(N2CC3(CCOCC3)C2)c(C(=O)Nc2ccc(C(=O)N3CCc4c(sc(C(=O)Nc5c(F)cccc5F)c4F)-c4ccccc43)cc2)c1 [Example 93]
15,> 8.00,Cc1cnc(N2CC3(CCOCC3)C2)c(C(=O)Nc2ccc(C(=O)N3CCc4c(sc(C(=O)Nc5c(F)cc(F)cc5F)c4F)-c4ccccc43)cc2)c1 [Example 94]
